These results are taken from ChEMBL document CHEMBL4699511, “Cedrol, a Sesquiterpene Alcohol, Enhances the Anticancer Efficacy of Temozolomide in Attenuating Drug Resistance via Regulation of the DNA Damage Response and MGMT Expression” (J Nat Prod, 2020).

SMILES strings stand for the structures.

Data set [1] concerns DBTRG-05MG. Briefly: Induction of cell cycle arrest in human DBTRG-05MG cells assessed as accumulation at S phase at 112.4 uM after 12 hrs in presence of TMZ by propidium iodide staining based flow cytometric analysis (reference value: 22.76 +/- 1.56%). The format is functional. A general note: A flow cytometer gives signals particle by particle.
For data set [2], the system named is RG2. Briefly: Induction of DNA damage in rat RG2 cells assessed as Chk1 phosphorylation at ser345 at 112.4 uM after 48 hrs in presence of TMZ by Western blot analysis (reference value: 1). The class given is functional. (Immunoblotting shows a protein as a band on a membrane.)
A short description of data set [3]: Synergistic cytotoxicity against rat CTX TNA2 cells assessed as synergistic effect index at 89.9 uM after 48 hrs in presence of 412.1 uM TMZ by MTT assay. The format is cell-based. The following applies: ctx tna2, 48 h. In general terms: Tetrazolium dyes change colour on reduction, which living cells bring about.
Data set [4] relates to RG2. Briefly: Induction of DNA damage in rat RG2 cells assessed as ATM phosphorylation at ser1981 residues at 112.4 uM after 48 hrs by Western blot analysis (reference value: 1). The format is functional.
The nature of data set [5]: Synergistic cytotoxicity against rat CTX TNA2 cells assessed as combination index at 89.9 uM after 48 hrs in presence of 515.1 uM TMZ by MTT assay. The class given is cell-based. Conditions: ctx tna2, 48 h.
Data set [6] relates to DBTRG-05MG. As to the kind of experiment: Induction of cell cycle arrest in human DBTRG-05MG cells assessed as accumulation at G0/G1 phase at 112.4 uM after 12 hrs by propidium iodide staining based flow cytometric analysis (reference value: 47.16 +/- 1.55%). The format is functional.
Data set [7] has as its system RG2. Briefly: Induction of cell cycle arrest in rat RG2 cells assessed as CyclinB1 expression at 112.4 uM after 48 hrs by Western blot analysis (reference value: 1). The format is functional.
The subject of data set [8] is RG2. As to the kind of experiment: Induction of DNA damage in rat RG2 cells assessed as Chk2 phosphorylation at Thr68 at 112.4 uM after 48 hrs in presence of TMZ by Western blot analysis (reference value: 1). The class given is functional.
Data set [9] has as its system DBTRG-05MG. Briefly: Induction of cell cycle arrest in human DBTRG-05MG cells assessed as accumulation at G0/G1 phase at 112.4 uM after 24 hrs by propidium iodide staining based flow cytometric analysis (reference value: 47.16 +/- 1.55%). The format is functional.
Data set [10] can be described thus: Inhibition of TMZ-induced drug resistance in human DBTRG-05MG cells assessed as CD133 expression at 112.4 uM after 48 hrs by Western blot analysis (reference value: 2.3). The class given is functional.
Data set [11] deals with RG2. As to the kind of experiment: Induction of cell cycle arrest in rat RG2 cells assessed as accumulation at S phase at 112.4 uM after 6 hrs by propidium iodide staining based flow cytometric analysis (reference value: 20.15 +/- 2.44%). The format is functional.
Data set [12] deals with DBTRG-05MG. As to the kind of experiment: Synergistic cytotoxicity against human DBTRG-05MG cells assessed as synergistic effect index at 134.9 uM after 48 hrs in presence of 515.1 uM TMZ by MTT assay. The class given is functional.
The subject of data set [13] is RG2. Briefly: Synergistic cytotoxicity against rat RG2 cells assessed as combination index at 89.9 uM after 48 hrs in presence of 103 uM TMZ by MTT assay. The class given is functional.
For data set [14], the system named is DBTRG-05MG. As to the kind of experiment: Inhibition of JNK phosphorylation at Thr183/Tyr185 residues in human DBTRG-05MG cells at 112.4uM after 48 hrs by Western blot analysis (reference value: 1). The class given is cell-based.
The test system of data set [15] is DBTRG-05MG. As to the kind of experiment: Induction of cell cycle arrest in human DBTRG-05MG cells assessed as accumulation at G0/G1 phase at 112.4 uM after 6 hrs by propidium iodide staining based flow cytometric analysis (reference value: 47.16 +/- 1.55%). The class given is functional.
The target of data set [16] is MAP kinase p38 (Homo sapiens) (UniProt O15264+Q15759+Q16539+P53778). Briefly: Inhibition of p38 phosphorylation at Tyr182 residues in human DBTRG-05MG cells at 112.4uM after 48 hrs in presence of TMZ by Western blot analysis (reference value: 1). The class given is cell-based.
Data set [17] deals with RG2. Briefly: Induction of apoptosis in rat RG2 cells assessed as phosphorylated caspace-3 expression at 112.4 uM after 48 hrs by Western blot analysis (reference value: 1). The class given is functional.
Data set [18] has as its system DBTRG-05MG. As to the kind of experiment: Induction of cell cycle arrest in human DBTRG-05MG cells assessed as accumulation at S phase at 112.4 uM after 24 hrs in presence of TMZ by propidium iodide staining based flow cytometric analysis (reference value: 22.76 +/- 1.56%). The class given is functional.
Data set [19] has as its system RG2. Briefly: Induction of cell cycle arrest in rat RG2 cells assessed as CyclinB1 expression at 112.4 uM after 48 hrs in presence of TMZ by Western blot analysis (reference value: 1). The class given is functional.
The test system of data set [20] is RG2. Briefly: Induction of cell cycle arrest in rat RG2 cells assessed as accumulation at G2/M phase at 112.4 uM after 12 hrs in presence of TMZ by propidium iodide staining based flow cytometric analysis (reference value: 20.04 +/- 0.55%). The class given is functional.
The test system of data set [21] is RG2. Briefly: Inhibition of ERK phosphorylation at Tyr204 residues in rat RG2 cells at 112.4uM after 48 hrs in presence of TMZ by Western blot analysis (reference value: 1). The format is cell-based.
The subject of data set [22] is DBTRG-05MG. As to the kind of experiment: Induction of cell cycle arrest in human DBTRG-05MG cells assessed as accumulation at S phase at 112.4 uM after 6 hrs in presence of TMZ by propidium iodide staining based flow cytometric analysis (reference value: 22.76 +/- 1.56%). The class given is functional.
Data set [23] in a line: Effect on ERK expression in rat RG2 cells at 112.4uM after 48 hrs by Western blot analysis (reference value: 1). The format is functional.
Data set [24] concerns RG2. Briefly: Induction of DNA damage in rat RG2 cells assessed as Chk2 phosphorylation at Thr68 at 112.4 uM after 48 hrs by Western blot analysis (reference value: 1). The format is functional.
Data set [25] is described as follows: Synergistic cytotoxicity against rat CTX TNA2 cells assessed as combination index at 89.9 uM after 48 hrs in presence of 412.1 uM TMZ by MTT assay. The class given is cell-based. The following applies: ctx tna2, 48 h.
The test system of data set [26] is RG2. As to the kind of experiment: Induction of cell cycle arrest in rat RG2 cells assessed as p21 expression at 206 uM after 48 hrs by Western blot analysis (reference value: 1). The format is functional.
The subject of data set [27] is RG2. As to the kind of experiment: Induction of cell cycle arrest in rat RG2 cells assessed as CDK4 expression at 206 uM after 48 hrs by Western blot analysis (reference value: 1). The format is functional.
Data set [28] relates to DBTRG-05MG. As to the kind of experiment: Induction of cell cycle arrest in human DBTRG-05MG cells assessed as accumulation at G2/M phase at 206 uM after 6 hrs by propidium iodide staining based flow cytometric analysis (reference value: 30.08 +/- 0.1%). The format is functional.
Data set [29] concerns DBTRG-05MG. As to the kind of experiment: Induction of DNA damage in human DBTRG-05MG cells assessed as Chk1 phosphorylation at ser345 residues at 206 uM after 48 hrs by Western blot analysis (reference value: 1). The class given is functional.
Data set [30] concerns DBTRG-05MG. Briefly: Induction of cell cycle arrest in human DBTRG-05MG cells assessed as p53 expression at 206 uM after 48 hrs by Western blot analysis (reference value: 1). The format is functional.
The test system of data set [31] is RG2. As to the kind of experiment: Induction of cell cycle arrest in rat RG2 cells assessed as accumulation at G0/G1 phase at 206 uM after 12 hrs by propidium iodide staining based flow cytometric analysis (reference value: 57.81 +/- 1.9%). The class given is functional.
The test system of data set [32] is DBTRG-05MG. Briefly: Induction of apoptosis in human DBTRG-05MG cells assessed as Bax expression at 206 uM after 48 hrs by Western blot analysis (reference value: 1). The format is functional.

As to `C[C@@H]1CC[C@H]2C(C)(C)[C@H]3C[C@@]12CC[C@@]3(C)O` [CEDROL], the Activity amounted to 16.75% with DBTRG-05MG [1]; 54.65% with DBTRG-05MG [6]; 57.59% in the data set on DBTRG-05MG [9]; 17.99% in the data set on RG2 [11]; 53.26% in the data set with DBTRG-05MG [15]; 14.17% in the data set with DBTRG-05MG [18]. Moreover, the Activity was 18.79% with RG2 [20] and 18.29% with DBTRG-05MG [22]. In addition, the “fold change (FC)” value in the data set with RG2 [2] is 3.5; in the data set with RG2 [4], 1; in the data set on RG2 [7], 0.5; with RG2 [8], 1.6; in [10] it was 1.5; in the data set with DBTRG-05MG [14] it was 1. The fold change (FC) was determined as 1.2 in [16]; 1.1 in the data set on RG2 [17]; 0.7 in the data set with RG2 [19]; 0.3 in the data set on RG2 [21]; 1.1 in [23]; 1 in the data set with RG2 [24]. Also, the Activity_index in data set [3] is given as 0.56; with DBTRG-05MG [12] it was 0.89. The CI in data set [5] came out at 0.89; in the data set on RG2 [13], 0.88; in [25] it was 1.11.

`Cn1nnc2c(C(N)=O)ncn2c1=O` [TEMOZOLOMIDE]: the “fold change (FC)” value with RG2 [26] was 2.3; in the data set on RG2 [27] it was 0.6; with DBTRG-05MG [29], 1; in the data set with DBTRG-05MG [30] it was 2; in the data set on DBTRG-05MG [32] it was 1.4. The results for the Activity with DBTRG-05MG [28] and with RG2 [31] were 34.67% and 49.55%, respectively.
